# In patent publication US20230126893A1, “[(1,4,5-TRISUBSTITUTED-1H-PYRAZOL-3-YL)SULFANYL]ACETIC ACID DERIVATIVES, SALTS THEREOF, AND USE THEREOF AS ACTIVE HERBICIDAL INGREDIENTS” (BAYER AKTIENGESELLSCHAFT, priority 2020, published 2023):
# Test system: Veronica persica
# Assay: Pre-emergence herbicidal effect against VERPE
# Assay type: in vivo
# Settings: 1280 g/ha, visual score after 3 weeks, 100% = plants have died, 0% = like control plants
# From the text: (§1) 1. Pre-emergence herbicidal effect and crop plant compatibility Seeds of monocotyledonous and dicotyledonous weed plants and crop plants are laid out in sandy loam soil in wood-fibre pots and covered with soil. The compounds of the invention, formulated in the form of wettable powders (WP) or as emulsion concentrates (EC), are then applied to the surface of the covering soil as aqueous suspension or emulsion at a water application rate equating to 600 to 800 L/ha with addition of 0.2% wetting agent. After the treatment, the pots are placed in a greenhouse and kept under good growth conditions for the trial plants. The damage to the test plants is scored visually after a test period of 3 weeks by comparison with untreated controls (herbicidal activity in percent (%): 100% activity=the plants have died, 0% activity=like control plants). [table]
row,Structure (SMILES),Pre-emergence action against VERPE
1,CCOC(=O)CSc1nn(-c2ccccc2F)c(-c2ccc(Cl)nc2)c1Br [II-012],100%
2,COC(=O)CCNC(=O)CSc1nn(-c2ccccc2F)c(-c2cccnc2)c1Br [VII-006],90%
3,O=C(O)CSc1nn(-c2ccccc2F)c(-c2ccc(Cl)nc2)c1Br [II-016],90%

# Test system: Poa annua
# Assay: Pre-emergence herbicidal effect against POAAN
# Assay type: in vivo
# Settings: 1280 g/ha, visual score after 3 weeks, 100% = plants have died, 0% = like control plants
# From the text: as §1
row,Structure (SMILES),Pre-emergence action against POAAN
1,CCOC(=O)CSc1nn(-c2ccccc2F)c(-c2ccc(Cl)nc2)c1Br [II-012],100%
2,COC(=O)CCNC(=O)CSc1nn(-c2ccccc2F)c(-c2cccnc2)c1Br [VII-006],100%
3,O=C(O)CSc1nn(-c2ccccc2F)c(-c2ccc(Cl)nc2)c1Br [II-016],100%

# Test system: Veronica persica
# Assay: Post-emergence herbicidal effect against VERPE
# Assay type: in vivo
# Settings: 1280 g/ha, visual assessment about 3 weeks after treatment, 100% = plants have died, 0% = like control plants
# Experimental: (§2) [table] 2. Post-emergence herbicidal effect and crop plant compatibility Seeds of monocotyledonous and dicotyledonous weed and crop plants are laid out in sandy loam soil in wood-fibre pots, covered with soil and cultivated in a greenhouse under good growth conditions. 2 to 3 weeks after sowing, the test plants are treated at the one-leaf stage. The compounds of the invention, formulated in the form of wettable powders (WP) or as emulsion concentrates (EC), are then sprayed onto the green parts of the plants as aqueous suspension or emulsion at a water application rate equating to 600 to 800 l/ha with addition of 0.2% wetting agent. After the test plants have been left to stand in the greenhouse under optimal growth conditions for about 3 weeks, the action of the preparations is assessed visually in comparison to untreated controls (herbicidal action in percent (%): 100% activity=the plants have died, 0% activity=like control plants).
row,Structure (SMILES),Post-emergence action against VERPE
1,CCOC(=O)CSc1nn(-c2ccccc2F)c(-c2ccc(Cl)nc2)c1Br [II-012],90%
2,COC(=O)CCNC(=O)CSc1nn(-c2ccccc2F)c(-c2cccnc2)c1Br [VII-006],90%
3,O=C(O)CSc1nn(-c2ccccc2F)c(-c2ccc(Cl)nc2)c1Br [II-016],100%

# Test system: Lolium rigidum
# Assay: Pre-emergence herbicidal effect against LOLRI
# Assay type: in vivo
# Settings: 1280 g/ha, visual score after 3 weeks, 100% = plants have died, 0% = like control plants
# From the text: as §1
row,Structure (SMILES),Pre-emergence action against LOLRI
1,CCOC(=O)CSc1nn(-c2ccccc2F)c(-c2ccc(Cl)nc2)c1Br [II-012],100%
2,O=C(O)CSc1nn(-c2ccccc2F)c(-c2ccc(Cl)nc2)c1Br [II-016],100%

# Test system: Digitaria sanguinalis
# Assay: Post-emergence herbicidal effect against DIGSA
# Assay type: in vivo
# Settings: 1280 g/ha, visual score after about 3 weeks, 100% = plants have died, 0% = like control plants
# Experimental: as §2
row,Structure (SMILES),Post-emergence action against DIGSA
1,O=C(O)CSc1nn(-c2ccccc2F)c(-c2ccc(Cl)nc2)c1Br [II-016],100%

# Test system: Digitaria sanguinalis
# Assay: Pre-emergence herbicidal effect against DIGSA
# Assay type: in vivo
# Settings: 1280 g/ha, visual score after 3 weeks, 100% = plants have died, 0% = like control plants
# From the text: as §1
row,Structure (SMILES),Pre-emergence action against DIGSA
1,O=C(O)CSc1nn(-c2ccccc2F)c(-c2ccc(Cl)nc2)c1Br [II-016],100%

# Test system: Echinochloa crus-galli
# Assay: Pre-emergence herbicidal effect against ECHCG
# Assay type: in vivo
# Settings: 1280 g/ha, visual score after 3 weeks, 100% = plants have died, 0% = like control plants
# From the text: as §1
row,Structure (SMILES),Pre-emergence action against ECHCG
1,CCOC(=O)CSc1nn(-c2ccccc2F)c(-c2ccc(Cl)nc2)c1Br [II-012],90%
2,COC(=O)CCNC(=O)CSc1nn(-c2ccccc2F)c(-c2cccnc2)c1Br [VII-006],90%
3,O=C(O)CSc1nn(-c2ccccc2F)c(-c2ccc(Cl)nc2)c1Br [II-016],100%

# Test system: Setaria viridis
# Assay: Post-emergence herbicidal effect against SETVI
# Assay type: in vivo
# Settings: 1280 g/ha, visual assessment about 3 weeks after treatment, 100% = plants have died, 0% = like control plants
# Experimental: as §2
row,Structure (SMILES),Post-emergence action against SETVI
1,CCOC(=O)CSc1nn(-c2ccccc2F)c(-c2ccc(Cl)nc2)c1Br [II-012],90%
2,COC(=O)CCNC(=O)CSc1nn(-c2ccccc2F)c(-c2cccnc2)c1Br [VII-006],90%

# Test system: Alopecurus myosuroides
# Assay: Post-emergence herbicidal effect against ALOMY
# Assay type: in vivo
# Settings: 1280 g/ha, visual score after about 3 weeks, 100% = plants have died, 0% = like control plants
# Experimental: as §2
row,Structure (SMILES),Post-emergence action against ALOMY
1,CCOC(=O)CSc1nn(-c2ccccc2F)c(-c2ccc(Cl)nc2)c1Br [II-012],90%
2,COC(=O)CCNC(=O)CSc1nn(-c2ccccc2F)c(-c2cccnc2)c1Br [VII-006],90%
3,O=C(O)CSc1nn(-c2ccccc2F)c(-c2ccc(Cl)nc2)c1Br [II-016],100%

# Test system: Poa annua
# Assay: Post-emergence herbicidal effect against POAAN
# Assay type: in vivo
# Settings: 1280 g/ha, visual assessment about 3 weeks after treatment, 100% = plants have died, 0% = like control plants
# Experimental: as §2
row,Structure (SMILES),Post-emergence action against POAAN
1,CCOC(=O)CSc1nn(-c2ccccc2F)c(-c2ccc(Cl)nc2)c1Br [II-012],100%
2,COC(=O)CCNC(=O)CSc1nn(-c2ccccc2F)c(-c2cccnc2)c1Br [VII-006],100%
3,O=C(O)CSc1nn(-c2ccccc2F)c(-c2ccc(Cl)nc2)c1Br [II-016],100%

# Test system: Tripleurospermum inodorum
# Assay: Pre-emergence herbicidal effect against MATIN
# Assay type: in vivo
# Settings: 1280 g/ha, visual score after 3 weeks, 100% = plants have died, 0% = like control plants
# From the text: as §1
row,Structure (SMILES),Pre-emergence action against MATIN
1,CCOC(=O)CSc1nn(-c2ccccc2F)c(-c2ccc(Cl)nc2)c1Br [II-012],100%
2,COC(=O)CCNC(=O)CSc1nn(-c2ccccc2F)c(-c2cccnc2)c1Br [VII-006],90%
3,O=C(O)CSc1nn(-c2ccccc2F)c(-c2ccc(Cl)nc2)c1Br [II-016],100%

# Test system: Stellaria media
# Assay: Pre-emergence herbicidal effect against STEME
# Assay type: in vivo
# Settings: 1280 g/ha, visual score after 3 weeks, 100% = plants have died, 0% = like control plants
# From the text: as §1
row,Structure (SMILES),Pre-emergence action against STEME
1,CCOC(=O)CSc1nn(-c2ccccc2F)c(-c2ccc(Cl)nc2)c1Br [II-012],100%
2,COC(=O)CCNC(=O)CSc1nn(-c2ccccc2F)c(-c2cccnc2)c1Br [VII-006],90%
3,O=C(O)CSc1nn(-c2ccccc2F)c(-c2ccc(Cl)nc2)c1Br [II-016],100%

# Test system: Tripleurospermum inodorum
# Assay: Post-emergence herbicidal effect against MATIN
# Assay type: in vivo
# Settings: 1280 g/ha, visual assessment about 3 weeks after treatment, 100% = plants have died, 0% = like control plants
# Experimental: as §2
row,Structure (SMILES),Post-emergence action against MATIN
1,CCOC(=O)CSc1nn(-c2ccccc2F)c(-c2ccc(Cl)nc2)c1Br [II-012],90%
2,COC(=O)CCNC(=O)CSc1nn(-c2ccccc2F)c(-c2cccnc2)c1Br [VII-006],90%
3,O=C(O)CSc1nn(-c2ccccc2F)c(-c2ccc(Cl)nc2)c1Br [II-016],100%

# Test system: Bassia scoparia
# Assay: Post-emergence herbicidal effect against KCHSC
# Assay type: in vivo
# Settings: 1280 g/ha, visual assessment about 3 weeks after treatment, 100% = plants have died, 0% = like control plants
# Experimental: as §2
row,Structure (SMILES),Post-emergence action against KCHSC
1,COC(=O)CCNC(=O)CSc1nn(-c2ccccc2F)c(-c2cccnc2)c1Br [VII-006],90%

# Test system: Setaria viridis
# Assay: Pre-emergence herbicidal effect against SETVI
# Assay type: in vivo
# Settings: 1280 g/ha, visual score after 3 weeks, 100% = plants have died, 0% = like control plants
# From the text: as §1
row,Structure (SMILES),Pre-emergence action against SETVI
1,CCOC(=O)CSc1nn(-c2ccccc2F)c(-c2ccc(Cl)nc2)c1Br [II-012],90%
2,COC(=O)CCNC(=O)CSc1nn(-c2ccccc2F)c(-c2cccnc2)c1Br [VII-006],90%
3,O=C(O)CSc1nn(-c2ccccc2F)c(-c2ccc(Cl)nc2)c1Br [II-016],100%

# Test system: Stellaria media
# Assay: Post-emergence herbicidal effect against STEME
# Assay type: in vivo
# Settings: 1280 g/ha, visual assessment about 3 weeks after treatment, 100% = plants have died, 0% = like control plants
# Experimental: as §2
row,Structure (SMILES),Post-emergence action against STEME
1,O=C(O)CSc1nn(-c2ccccc2F)c(-c2ccc(Cl)nc2)c1Br [II-016],100%

# Test system: Echinochloa crus-galli
# Assay: Post-emergence herbicidal effect against ECHCG
# Assay type: in vivo
# Settings: 1280 g/ha, visual score after about 3 weeks, 100% = plants have died, 0% = like control plants
# Experimental: as §2
row,Structure (SMILES),Post-emergence action against ECHCG
1,CCOC(=O)CSc1nn(-c2ccccc2F)c(-c2ccc(Cl)nc2)c1Br [II-012],90%
2,O=C(O)CSc1nn(-c2ccccc2F)c(-c2ccc(Cl)nc2)c1Br [II-016],100%

# Test system: Alopecurus myosuroides
# Assay: Pre-emergence herbicidal effect against ALOMY
# Assay type: in vivo
# Settings: 1280 g/ha, visual score after 3 weeks, 100% = plants have died, 0% = like control plants
# From the text: as §1
row,Structure (SMILES),Pre-emergence action against ALOMY
1,CCOC(=O)CSc1nn(-c2ccccc2F)c(-c2ccc(Cl)nc2)c1Br [II-012],90%
2,COC(=O)CCNC(=O)CSc1nn(-c2ccccc2F)c(-c2cccnc2)c1Br [VII-006],90%
3,O=C(O)CSc1nn(-c2ccccc2F)c(-c2ccc(Cl)nc2)c1Br [II-016],90%
